Results published in article PMC5218480 (PLoS ONE, 2017).

Tested on: MV-4-11 cells
Assay: Gene expression microarray analysis (Affymetrix PrimeView) and GSEA
Assay type: cell-based, human
Design: RFU PODN (11730768_x_at) / Fold change /veh PODN (11730768_x_at) / RFU LINC00158 (11744669_a_at) / Fold change /veh LINC00158 (11744669_a_at) / RFU DUSP10 (11751237_a_at) / Fold change /veh DUSP10 (11751237_a_at) / RFU ID3 (11757404_x_at) / Fold change /veh ID3 (11757404_x_at) / RFU PLEKHG5 (11737974_s_at) / Fold change /veh PLEKHG5 (11737974_s_at) / RFU LRRC4B (11730491_at) / Fold change /veh LRRC4B (11730491_at) / RFU GIMAP4 (11747438_a_at) / Fold change /veh GIMAP4 (11747438_a_at) / RFU KRT8 (11758183_x_at) / Fold change /veh KRT8 (11758183_x_at) / RFU CNN1 (11734310_a_at) / Fold change /veh CNN1 (11734310_a_at) / RFU VPS37D (11726825_at) / Fold change /veh VPS37D (11726825_at) / RFU C10orf10 (11716522_x_at) / Fold change /veh C10orf10 (11716522_x_at) / RFU KIR2DL2 /// KIR2DL4 /// KIR2DL5A /// KIR2DL5B /// KIR2DS1 /// KIR2DS2 /// KIR2DS3 /// KIR2DS4 /// KIR3DL3 /// KIR3DL3 /// KIR3DS1 (11738374_at) / Fold change /veh KIR2DL2 /// KIR2DL4 /// KIR2DL5A /// KIR2DL5B /// KIR2DS1 /// KIR2DS2 /// KIR2DS3 /// KIR2DS4 /// KIR3DL3 /// KIR3DL3 /// KIR3DS1 (11738374_at) / RFU C1QL1 (11718748_at) / Fold change /veh C1QL1 (11718748_at) / RFU TMPRSS4 (11747572_a_at) / Fold change /veh TMPRSS4 (11747572_a_at) / RFU HAMP (11756126_x_at) / Fold change /veh HAMP (11756126_x_at) / RFU RNFT2 (11725882_a_at) / Fold change /veh RNFT2 (11725882_a_at) / RFU NR4A2 (11747474_a_at) / Fold change /veh NR4A2 (11747474_a_at) / RFU ABCC12 (11746883_a_at) / Fold change /veh ABCC12 (11746883_a_at) / RFU TMEM136 (11760407_x_at) / Fold change /veh TMEM136 (11760407_x_at) / RFU CLDN22 /// WWC2 (11732394_at) / Fold change /veh CLDN22 /// WWC2 (11732394_at) / RFU HLA-DPB1 (11760878_x_at) / Fold change /veh HLA-DPB1 (11760878_x_at) / RFU SPINT1 (11716480_a_at) / Fold change /veh SPINT1 (11716480_a_at) / RFU GAP43 (11754022_s_at) / Fold change /veh GAP43 (11754022_s_at) / RFU A4GNT (11735810_at) / Fold change /veh A4GNT (11735810_at) / RFU PRB3 (11715151_x_at) / Fold change /veh PRB3 (11715151_x_at) / RFU TUBB4B (11761932_at) / Fold change /veh TUBB4B (11761932_at) / RFU CAPN14 (11732068_a_at) / Fold change /veh CAPN14 (11732068_a_at) / RFU TMCC2 (11721928_a_at) / Fold change /veh TMCC2 (11721928_a_at) / RFU IRGQ (11745062_a_at) / Fold change /veh IRGQ (11745062_a_at) / RFU FAM174B (11720279_a_at) / Fold change /veh FAM174B (11720279_a_at) / RFU TMPRSS4 (11748680_a_at) / Fold change /veh TMPRSS4 (11748680_a_at) / RFU FAM212B (11763350_a_at) / Fold change /veh FAM212B (11763350_a_at) / RFU PLEKHG5 (11743358_a_at) / Fold change /veh PLEKHG5 (11743358_a_at) / RFU ZSCAN30 (11745921_a_at) / Fold change /veh ZSCAN30 (11745921_a_at) / RFU CMKLR1 (11741424_a_at) / Fold change /veh CMKLR1 (11741424_a_at) / RFU LOC101060620 /// MAPK8IP1 (11723275_at) / Fold change /veh LOC101060620 /// MAPK8IP1 (11723275_at) / RFU SPTSSB (11747773_x_at) / Fold change /veh SPTSSB (11747773_x_at) / RFU PRSS12 (11739890_at) / Fold change /veh PRSS12 (11739890_at) / RFU BIN1 (11741810_x_at) / Fold change /veh BIN1 (11741810_x_at) / RFU WNT11 (11732464_a_at) / Fold change /veh WNT11 (11732464_a_at) / RFU C10orf10 (11716521_a_at) / Fold change /veh C10orf10 (11716521_a_at) / RFU C5orf56 (11738089_at) / Fold change /veh C5orf56 (11738089_at) / RFU CYB561 (11721691_x_at) / Fold change /veh CYB561 (11721691_x_at) / RFU ANKRD19P (11752326_a_at) / Fold change /veh ANKRD19P (11752326_a_at) / RFU OR2T12 /// OR2T33 /// OR2T8 (11738714_s_at) / Fold change /veh OR2T12 /// OR2T33 /// OR2T8 (11738714_s_at) / RFU VCAN (11748164_a_at) / Fold change /veh VCAN (11748164_a_at) / RFU JSRP1 (11732532_at) / Fold change /veh JSRP1 (11732532_at) / RFU KRTAP10-11 (11738290_x_at) / Fold change /veh KRTAP10-11 (11738290_x_at) / RFU MYO3A (11730013_a_at) / Fold change /veh MYO3A (11730013_a_at) / RFU EBF3 (11725865_a_at) / Fold change /veh EBF3 (11725865_a_at) / RFU CAMK2N1 (11719241_x_at) / Fold change /veh CAMK2N1 (11719241_x_at) / RFU C5orf56 (11738088_a_at) / Fold change /veh C5orf56 (11738088_a_at) / RFU OLFML3 (11715873_a_at) / Fold change /veh OLFML3 (11715873_a_at) / RFU LOC100653217 /// NTM (11731650_a_at) / Fold change /veh LOC100653217 /// NTM (11731650_a_at) / RFU MAPK11 (11762145_a_at) / Fold change /veh MAPK11 (11762145_a_at) / RFU FIZ1 (11724087_x_at) / Fold change /veh FIZ1 (11724087_x_at) / RFU OASL (11726364_x_at) / Fold change /veh OASL (11726364_x_at) / RFU SOX15 (11748057_x_at) / Fold change /veh SOX15 (11748057_x_at) / RFU CD79A (11719716_a_at) / Fold change /veh CD79A (11719716_a_at) / RFU HIST1H1D (11736915_at) / Fold change /veh HIST1H1D (11736915_at) / RFU CASKIN2 (11723855_a_at) / Fold change /veh CASKIN2 (11723855_a_at) / RFU LOC730098 (11760151_x_at) / Fold change /veh LOC730098 (11760151_x_at) / RFU OR4N2 (11742367_at) / Fold change /veh OR4N2 (11742367_at) / RFU PRRT2 (11749266_a_at) / Fold change /veh PRRT2 (11749266_a_at) / RFU SNX32 (11753110_a_at) / Fold change /veh SNX32 (11753110_a_at) / RFU CDHR5 (11726645_a_at) / Fold change /veh CDHR5 (11726645_a_at) / RFU RCAN1 (11760418_a_at) / Fold change /veh RCAN1 (11760418_a_at) / RFU FAM167A (11723789_a_at) / Fold change /veh FAM167A (11723789_a_at) / RFU FAM26E (11764081_at) / Fold change /veh FAM26E (11764081_at) / RFU ISYNA1 (11749810_s_at) / Fold change /veh ISYNA1 (11749810_s_at) / RFU ACY1 (11761880_at) / Fold change /veh ACY1 (11761880_at) / RFU 11764098_at / Fold change /veh 11764098_at / RFU SAMD14 (11745864_x_at) / Fold change /veh SAMD14 (11745864_x_at) / RFU NPB (11741838_a_at) / Fold change /veh NPB (11741838_a_at) / RFU TMPRSS6 (11731388_a_at) / Fold change /veh TMPRSS6 (11731388_a_at) / RFU KRTAP10-2 (11738614_at) / Fold change /veh KRTAP10-2 (11738614_at) / RFU ARHGAP8 /// PRR5-ARHGAP8 (11727945_x_at) / Fold change /veh ARHGAP8 /// PRR5-ARHGAP8 (11727945_x_at) / RFU KRTAP5-7 /// NADSYN1 (11734609_at) / Fold change /veh KRTAP5-7 /// NADSYN1 (11734609_at) / RFU RASL12 (11751679_a_at) / Fold change /veh RASL12 (11751679_a_at) / RFU CDKN2B (11736163_a_at) / Fold change /veh CDKN2B (11736163_a_at) / RFU PRF1 (11729649_at) / Fold change /veh PRF1 (11729649_at) / RFU, ZNF638 /// ZNF638-IT1 / Fold change vs veh, ZNF638 /// ZNF638-IT1 / RFU, PANK3 / Fold change vs veh, PANK3 / RFU, SH3YL1 / Fold change vs veh, SH3YL1 / RFU, ZEB2 / Fold change vs veh, ZEB2 / RFU, NRIP1 / Fold change vs veh, NRIP1 / RFU, PTTG1IP / Fold change vs veh, PTTG1IP / RFU, CAPN2 / Fold change vs veh, CAPN2 / RFU, MED14 / Fold change vs veh, MED14 / RFU, SNORA58 / Fold change vs veh, SNORA58 / RFU, C1orf63 / Fold change vs veh, C1orf63 / RFU, LRRFIP1 / Fold change vs veh, LRRFIP1 / RFU, NDUFAF7 / Fold change vs veh, NDUFAF7 / RFU, SLC12A2 / Fold change vs veh, SLC12A2 / RFU, IBTK / Fold change vs veh, IBTK / RFU, ESF1 / Fold change vs veh, ESF1 / Fold change vs veh, TMEM50B / RFU, TAOK1 / Fold change vs veh, TAOK1 / RFU, ACBD3 / Fold change vs veh, ACBD3 / RFU, TMA16 / Fold change vs veh, TMA16 / RFU, RWDD3 / Fold change vs veh, RWDD3 / RFU, BCAT1 / Fold change vs veh, BCAT1 / RFU, EDEM3 / Fold change vs veh, EDEM3 / RFU, TMEM33 / Fold change vs veh, TMEM33 / RFU, WDR75 / Fold change vs veh, WDR75 / RFU, AHCTF1 / Fold change vs veh, AHCTF1 / RFU, TFRC / Fold change vs veh, TFRC / RFU, ZDHHC17 / Fold change vs veh, ZDHHC17 / RFU, NOM1 / Fold change vs veh, NOM1 / RFU, ARL8B / Fold change vs veh, ARL8B / RFU, ZBTB11 / Fold change vs veh, ZBTB11 / RFU, TAMM41 / Fold change vs veh, TAMM41 / RFU, KIAA1704 /// LOC100996395 / Fold change vs veh, KIAA1704 /// LOC100996395 / RFU, ING1 / Fold change vs veh, ING1 / RFU, TRMT61B / Fold change vs veh, TRMT61B / RFU, FUBP3 / Fold change vs veh, FUBP3 / RFU, TP53 / Fold change vs veh, TP53 / RFU, TNKS2 / Fold change vs veh, TNKS2 / RFU, ZFP14 / Fold change vs veh, ZFP14 / RFU, ACTR2 / Fold change vs veh, ACTR2 / RFU, PPP3R1 / Fold change vs veh, PPP3R1 / RFU, PIK3R1 / Fold change vs veh, PIK3R1 / RFU, HNRNPA1 / Fold change vs veh, HNRNPA1 / RFU, RNF170 / Fold change vs veh, RNF170 / RFU, ZNF28 / Fold change vs veh, ZNF28 / RFU, RNGTT / Fold change vs veh, RNGTT / RFU, OGT / Fold change vs veh, OGT / RFU, BRD1 / Fold change vs veh, BRD1 / RFU, MARS / Fold change vs veh, MARS / RFU, ZNF655 / Fold change vs veh, ZNF655 / RFU, FAHD1 / Fold change vs veh, FAHD1 / RFU, BDP1 / Fold change vs veh, BDP1 / RFU, LRRCC1 / Fold change vs veh, LRRCC1 / RFU, ARID1A / Fold change vs veh, ARID1A / RFU, ZNF146 / Fold change vs veh, ZNF146 / RFU, ZNF330 / Fold change vs veh, ZNF330 / RFU, GPN3 / Fold change vs veh, GPN3 / RFU, C9orf123 / Fold change vs veh, C9orf123 / RFU, N4BP2L2 / Fold change vs veh, N4BP2L2 / RFU, ARFIP1 / Fold change vs veh, ARFIP1 / RFU, FAM179B / Fold change vs veh, FAM179B / RFU, BCL10 / Fold change vs veh, BCL10 / RFU, UHRF1BP1L / Fold change vs veh, UHRF1BP1L / RFU, BET1 / Fold change vs veh, BET1 / RFU, CNOT2 / Fold change vs veh, CNOT2 / RFU, ZNF268 / Fold change vs veh, ZNF268 / Fold change vs veh, ZNF507 / RFU, DGCR2 / Fold change vs veh, DGCR2 / RFU, WDSUB1 / Fold change vs veh, WDSUB1 / Fold change vs veh, HSP90B1 /// MIR3652 / RFU, ADSS / Fold change vs veh, ADSS / RFU, GK / Fold change vs veh, GK / RFU, ZNF148 / Fold change vs veh, ZNF148 / RFU, TAF9 / Fold change vs veh, TAF9 / RFU, SLC1A5 / Fold change vs veh, SLC1A5 / RFU, SLMO2 / Fold change vs veh, SLMO2 / RFU, ABCC4 / Fold change vs veh, ABCC4 / RFU, LOC101060439 /// RAP1B / Fold change vs veh, LOC101060439 /// RAP1B / RFU, RFX7 / Fold change vs veh, RFX7 / RFU, GTPBP10 / Fold change vs veh, GTPBP10 / RFU, CNEP1R1 / Fold change vs veh, CNEP1R1 / RFU, BIVM-ERCC5 /// ERCC5 / Fold change vs veh, BIVM-ERCC5 /// ERCC5 / RFU, ILF3 / Fold change vs veh, ILF3 / RFU 11762660_at / Fold change /veh 11762660_at / RFU VCAN (11757783_s_at) / Fold change /veh VCAN (11757783_s_at) / RFU DDX43 (11728927_at) / Fold change /veh DDX43 (11728927_at) / RFU KRT8 (11758188_x_at) / Fold change /veh KRT8 (11758188_x_at) / RFU NKD1 (11759106_at) / Fold change /veh NKD1 (11759106_at) / RFU SRD5A1 (11742802_a_at) / Fold change /veh SRD5A1 (11742802_a_at) / RFU TPSAB1 /// TPSB2 (11721975_s_at) / Fold change /veh TPSAB1 /// TPSB2 (11721975_s_at) / RFU GSTM3 (11746129_a_at) / Fold change /veh GSTM3 (11746129_a_at) / RFU IL23R (11737362_x_at) / Fold change /veh IL23R (11737362_x_at) / RFU TMEM51 (11727254_a_at) / Fold change /veh TMEM51 (11727254_a_at) / RFU PIWIL2 (11732686_x_at) / Fold change /veh PIWIL2 (11732686_x_at) / RFU ORM1 (11744905_x_at) / Fold change /veh ORM1 (11744905_x_at) / RFU CCDC152 (11743942_at) / Fold change /veh CCDC152 (11743942_at) / RFU ECM1 (11717891_a_at) / Fold change /veh ECM1 (11717891_a_at) / RFU IL23R (11748794_a_at) / Fold change /veh IL23R (11748794_a_at) / RFU TNFAIP8L3 (11732012_x_at) / Fold change /veh TNFAIP8L3 (11732012_x_at) / RFU MBOAT4 (11741988_at) / Fold change /veh MBOAT4 (11741988_at) / RFU 11764193_at / Fold change /veh 11764193_at / RFU TMEM53 (11763286_at) / Fold change /veh TMEM53 (11763286_at) / RFU MAGEB2 (11727129_at) / Fold change /veh MAGEB2 (11727129_at) / RFU TMEM200A (11744735_a_at) / Fold change /veh TMEM200A (11744735_a_at) / RFU CCDC152 (11751479_a_at) / Fold change /veh CCDC152 (11751479_a_at) / RFU FAM211A (11726209_a_at) / Fold change /veh FAM211A (11726209_a_at) / RFU RGS16 (11746705_a_at) / Fold change /veh RGS16 (11746705_a_at) / RFU VCAN (11755009_s_at) / Fold change /veh VCAN (11755009_s_at) / RFU RHOB (11743442_s_at) / Fold change /veh RHOB (11743442_s_at) / RFU RGS16 (11720943_a_at) / Fold change /veh RGS16 (11720943_a_at) / RFU RGS16 (11720944_at) / Fold change /veh RGS16 (11720944_at) / RFU, VPS4B / Fold change vs veh, VPS4B / RFU, CREB1 / Fold change vs veh, CREB1 / RFU, DNAJC13 / Fold change vs veh, DNAJC13 / RFU, GNAQ / Fold change vs veh, GNAQ / RFU, CDK5R1 / Fold change vs veh, CDK5R1 / RFU, ZRANB3 / Fold change vs veh, ZRANB3 / RFU, CUL4A / Fold change vs veh, CUL4A / RFU, CCNY / Fold change vs veh, CCNY / RFU, UFL1 / Fold change vs veh, UFL1 / RFU, COG3 / Fold change vs veh, COG3 / RFU, DIAPH2 / Fold change vs veh, DIAPH2 / RFU, SKA2 / Fold change vs veh, SKA2 / RFU, AFF3 / Fold change vs veh, AFF3 / RFU, LMF1 / Fold change vs veh, LMF1 / RFU, IPO11 / Fold change vs veh, IPO11 / RFU, DFFB / Fold change vs veh, DFFB / RFU, FOXP1 / Fold change vs veh, FOXP1 / RFU, CARD8 / Fold change vs veh, CARD8 / RFU, STRN3 / Fold change vs veh, STRN3 / RFU, ADK / Fold change vs veh, ADK / RFU, RASSF2 / Fold change vs veh, RASSF2 / RFU, WIPF1 / Fold change vs veh, WIPF1 / RFU, LARP1B / Fold change vs veh, LARP1B / RFU, RASA1 / Fold change vs veh, RASA1 / RFU, RB1 / Fold change vs veh, RB1 / RFU, PPFIA1 / Fold change vs veh, PPFIA1 / RFU, MAT2A / Fold change vs veh, MAT2A / RFU, CCT5 / Fold change vs veh, CCT5 / RFU, WDR92 / Fold change vs veh, WDR92 / RFU, CUX1 / Fold change vs veh, CUX1 / RFU, TTC7A / Fold change vs veh, TTC7A / RFU, TMEM135 / Fold change vs veh, TMEM135 / RFU, DEPTOR / Fold change vs veh, DEPTOR / RFU, CPM / Fold change vs veh, CPM / RFU, DNAJB6 / Fold change vs veh, DNAJB6 / RFU, CACNA2D3 / Fold change vs veh, CACNA2D3 / RFU, DTX4 / Fold change vs veh, DTX4 / RFU, TFCP2 / Fold change vs veh, TFCP2 / RFU, GMCL1 /// GMCL1P1 / Fold change vs veh, GMCL1 /// GMCL1P1 / RFU, AEBP2 / Fold change vs veh, AEBP2 / RFU, SNHG1 /// SNORD22 /// SNORD25 /// SNORD26 /// SNORD27 /// SNORD28 /// SNORD29 /// SNORD31 / Fold change vs veh, SNHG1 /// SNORD22 /// SNORD25 /// SNORD26 /// SNORD27 /// SNORD28 /// SNORD29 /// SNORD31 / Fold change (Aza/veh), C12orf56 (ProbeSet 11735607_a_at) / Fold change (ACY-1035/veh), C12orf56 (ProbeSet 11735607_a_at) / Fold change (Aza/veh), FGFR1OP (ProbeSet 11751329_s_at) / Fold change (ACY-1035/veh), FGFR1OP (ProbeSet 11751329_s_at) / Fold change (Aza/veh), VPS36 (ProbeSet 11739960_a_at) / Fold change (ACY-1035/veh), VPS36 (ProbeSet 11739960_a_at) / RFU SYPL1 (11715823_x_at) / Fold change /veh SYPL1 (11715823_x_at) / RFU IGFBP7 (11715501_s_at) / Fold change /veh IGFBP7 (11715501_s_at) / RFU REEP3 (11722064_at) / Fold change /veh REEP3 (11722064_at) / RFU IGLL1 (11728026_x_at) / Fold change /veh IGLL1 (11728026_x_at): dose or concentration left out as unconfirmed
Conditions: ProbeSet 11727958_a_at; LIST B

Nc1ccc(-c2cccs2)cc1NC(=O)c1ccc2c(c1)cc(C1CC1)n2CCN1CCOCC1 [ACY-1035]
RFU, ING1: 74.08 RFU
